In patent US6475507B1, “Sustained release compositions and the process for their preparation” (priority 1997, dated 2002):

Assay: Specific surface area of the active substance by the BET method
Assay type: physicochemical
Details: peptide salt after lyophilization (or starting material)
Protocol: For all these examples, the inherent viscosities (IV) were measured by the conventional methods of flow time measurement, as described for example in “Pharmacopoée Européenne”, 1997, pages 17-18 (capillary tube method). Unless stated otherwise, these viscosities have been measured in chloroform at a concentration of 0.1% at 25° C. or in hexaisofluoropropanol at a concentration of 0.5% at 30° C. Where measured, the specific surface area of the active substance was determined by the so-called BET method (absorption of a nitrogen monolayer on the active substance), a method well known to a person skilled in the art.

| Compound | Specific surface area |
| --- | --- |
| CC(C)[C@@H]1NC(=O)[C@H](CCCCN)NC(=O)[C@@H](Cc2c[nH]c3ccccc23)NC(=O)[C@H](Cc2ccc(O)cc2)NC(=O)[C@@H](NC(=O)[C@H](N)Cc2ccc3ccccc3c2)CSSC[C@@H](C(=O)N[C@H](C(N)=O)[C@@H](C)O)NC1=O [Example 13, lanreotide acetate] | 36 m^2/g |
| CC(C)[C@@H]1NC(=O)[C@H](CCCCN)NC(=O)[C@@H](Cc2c[nH]c3ccccc23)NC(=O)[C@H](Cc2ccc(O)cc2)NC(=O)[C@@H](NC(=O)[C@H](N)Cc2ccc3ccccc3c2)CSSC[C@@H](C(=O)N[C@H](C(N)=O)[C@@H](C)O)NC1=O [Example 14, lanreotide acetate] | 43 m^2/g |
| CC(C)[C@@H]1NC(=O)[C@H](CCCCN)NC(=O)[C@@H](Cc2c[nH]c3ccccc23)NC(=O)[C@H](Cc2ccc(O)cc2)NC(=O)[C@@H](NC(=O)[C@H](N)Cc2ccc3ccccc3c2)CSSC[C@@H](C(=O)N[C@H](C(N)=O)[C@@H](C)O)NC1=O [modified lanreotide acetate, lanreotide acetate] | 4.4 m^2/g |
| triptorelin acetate [modified triptorelin acetate] | 4.7 m^2/g |
| triptorelin acetate [unmodified triptorelin acetate, reference compound] | 0.8 m^2/g |
